Laboratory results as given in publication PMC11351612, “Heteronuclear Complexes with Promising Anticancer Activity against Colon Cancer” (Biomedicines, 2024).

Assays:
Caco-2/PD7 cells = assay: Annexin V/propidium iodide apoptosis assay, Caco-2/PD7; format: cell-based, human; settings: Caco-2/PD7, IC50 concentration, 72 h; control 35.8%
Description: Study of cell death. After the appropriate incubation, cells were collected and stained with annexin V-FTIC, according to the manufacturer’s instructions. A negative control was prepared, containing unreacted cells to define the basal level of apoptotic and necrotic or dead cells. After incubation, the cells were transferred to flow-cytometry tubes and washed twice with temperate phosphate-buffered saline (PBS), suspended in 100 μL annexin V binding buffer (10 mM Hepes/NaOH, pH 7.4, 140 mM NaCl, 2.5 mM CaCl2), then 5 μL of annexin V-FITC, and 5 μL of PI was added to each 100 μL of cell suspension. After incubation for 15 min at room temperature in the dark, 400 μL of 1× annexin binding buffer was added and analysed by flow cytometry within one hour. The signal intensity was measured using a FACSARIA BD and analysed using FASCDIVA BD.
This inhibition of apoptosis produces a fast growth and proliferation of cancerous cells. The population of early and late apoptotic cells increased to 35% after treatment with complex 1 in comparison with the vehicle-treated cells (12%). […] Additionally, the effect observed after treating the cells with a dosage equal to the IC50 concentration is time-dependent. […]

[1] = test system: pIRES2-EGFP (5308 pb) plasmid DNA; assay: Gel electrophoretic mobility of plasmid DNA; format: binding; settings: metal-to-base pair ratios 0.5, 1, 2; 0.8% agarose gel
Description: Adducts with pIRES2-EGFP (5308 pb) plasmid DNA (Catalog #6029-1) were prepared by adding the required volume of a freshly prepared solution of metal complexes in MilliQ water. The concentration of pIRES2-EGFP in the reaction mixture was 117 ng/µL, and the complexes’ concentration was varied to give different metal-to-base pair stoichiometries (0.5, 1 and 2). The mobility of the metal complex-treated pIRES2-EGFP samples was analysed by gel electrophoresis on a 0.8% (w/v) agarose gel (Boehringer-Mannheim, Mannheim, Germany) at […] at 25 °C in Tris-acetate/EDTA buffer. The gel was stained for 30 min in […] (w/v) ethidium bromide and the bands were visualised with a UVP gel scanner.
In addition, the interaction of both complexes with DNA was also studied by their ability to modify the electrophoretic mobility of the pIRES2-EGFP (5308 pb) plasmid DNA and compared to cisplatin (Figure 7).

Caco-2/TC7 = assay: Intracellular ROS generation (DCFH-DA); format: cell-based, human; settings: IC50 concentration, monitored 3 h
Description: Measurement of intracellular ROS generation. The production of ROS was measured in Caco-2/TC7 seeded at a 4000 cells/well concentration in a 96-well plate, as described above. After 24 h, the culture growth medium was removed and cells were washed with PBS 1× and incubated with 20 µM DCFH-DA (Sigma-Aldrich) (100 µL/well) at 37 °C for 45 min in the dark. Afterwards, cells were washed with PBS 1× and then incubated with the tested compounds at their IC50 concentration or with 500 µM of H2O2 for the positive control. The fluorescent emission of DCF was monitored at 530 nm right after the addition of the complexes for 3 h using a microplate reader (λex = 485 nm), measuring every 15 min. The temperature was maintained at 37 °C during the experiment.
It is important to study the effect caused by ROS production upon the treatment of cells with metallic complexes, as it could indicate TrxR (thioredoxin reductase) inhibition and induction of apoptosis. Thus, the production of hydrogen peroxide in Caco-2 cells upon treatment with IC50 concentrations of complexes 1 and 2 has been studied. The method based on the H2O2-sensitive fluorescent probe DCFH-DA (2′-7′dichlorofluorescin diacetate) has been used. […]

Caco-2/TC7 cells = assay: Cell cycle analysis (PI, flow cytometry), Caco-2/TC7; format: cell-based, human; settings: Caco-2/TC7, IC50 concentration, 48 h and 72 h
Description: Cell cycle analysis. After treatment, the cells were fixed in 70% ice-cold ethanol and stored at 4 °C for 24 h. After centrifugation, the cells were rehydrated in PBS (phosphate-buffered saline) and stained with propidium iodide (PI, 50 μg/mL) solution containing RNase A (100 μg/mL). PI-stained cells were analysed for DNA content in a FACSARRAY BD equipped with an argon ion laser. […] Cell cycle distribution was determined on a linear scale. The percentage of cells in cycle phases was determined using MODIFIT 3.0 verity software.
To investigate the influence of the heteronuclear derivative 1 on the cell cycle distribution of Caco-2 cells, propidium iodide-stained cells were analysed by flow cytometry. The distribution of cells found in each stage of the cell cycle for the control samples was sufficiently homogeneous (Figure 4). For both cell lines, samples analysed after 48 h of incubation had 22% of the cells in the G0/G1 phase, ca. 45% of cells in the synthesis phase, and approximately 30% of cells undergoing the G2 phase or cell division. The low percentage of cells observed in the G0 and G1 phases may be indicative of elevated proliferation and an uncontrolled growth of cancerous cells. It would be of interest to ascertain whether the complexes chosen for the treatments could arrest the cell cycle at phases preceding cell division, thereby inhibiting the proliferation of cancer cells.

Substance: [Cu{Au(Spy)(PTA)}2]PF6 [compound 1]
- Apoptotic cells (early + late apoptosis) (Caco-2/PD7 cells): 62.4%
- Effect on electrophoretic mobility of plasmid DNA [1]: significant effect on the mobility
- H2O2 / ROS formation (DCF fluorescence vs vehicle-treated cells) (Caco-2/TC7): more markedly
- Effect on cell cycle distribution (Caco-2/TC7 cells): arrest of the cell cycle in Caco-2/TC7 cells within the G0/G1 phases
